Each structure is given as a SMILES string.

The first data set relates to potted young oranges (variety: Unshu). Kind of data set: Phytotoxicity of treating compound, Citrus Melanose test. Conditions: 500 ppm.
In the case of `O=C1C=CC(=O)N1c1cccc(OC(F)F)c1` [compound 5], the “Phytotoxicity of Treating Compound” value is listed as “++ (26-50%)”.
Consider `COc1ccccc1N1C(=O)C(Cl)=C(Cl)C1=O` [compound 7], for which the “Phytotoxicity of Treating Compound” value is recorded as “+ (6-25%)”.
Turning to `O=C1C=CC(=O)N1c1ccc(OC(F)F)cc1` [compound 6], the “Phytotoxicity of Treating Compound” value is “+ (6-25%)”.
As for `O=C1C=CC(=O)N1c1ccccc1OC(F)F` [compound 4], the “Phytotoxicity of Treating Compound” value is recorded as “- (0%)”.

For another data set, the system named is Alternaria kikuchiana. Kind of data set: Spore-germination Inhibiting Test. It is filed as cell-based. Conditions: 10 ppm, 27° C., 20 hours. The procedure: Spore-germination Inhibiting Test for Alternaria kukuchiana An apricot medium is inoculated with Alternaria kikuchiana and incubated at a temperature of 27° C. for 7-10 days to form conidia on the medium. […] 0.02 Ml of the prepared spore suspension containing the compound according to the present invention is dropped on a slide glass and incubated at a temperature of 27° C. under moist conditions for 20 hours. Thereafter, whether or not the spores germinate is examined under a microscope and the spore-germination rate is then calculated.
For `O=C1C=CC(=O)N1c1cccc(OC(F)F)c1` [compound 5], the “Spore-germination Rate (%)” value amounted to 5%.
As for `COc1ccccc1N1C(=O)C(Cl)=C(Cl)C1=O` [compound 7], the “Spore-germination Rate (%)” value worked out at 75%.
The same measure, in the same setting: under `O=C1C=CC(=O)N1c1ccc(OC(F)F)cc1` [compound 6] stands 4%; under `O=C1C=CC(=O)N1c1ccccc1OC(F)F` [compound 4], 7%.

In a further data set the test system is potted young pears (variety: Niju-seiki). Kind of data set: Phytotoxicity of treating compound, Pear Black Spot test. Conditions: 500 ppm, damaged area on leaves.
As to `O=C1C=CC(=O)N1c1cccc(OC(F)F)c1` [compound 5], the “Phytotoxicity of Treating Compound” value is “+++ (≥51%)”.
Regarding `COc1ccccc1N1C(=O)C(Cl)=C(Cl)C1=O` [compound 7], the “Phytotoxicity of Treating Compound” value is reported as “++ (26-50%)”.
Consider `O=C1C=CC(=O)N1c1ccc(OC(F)F)cc1` [compound 6], for which the “Phytotoxicity of Treating Compound” value was “++ (26-50%)”.
On the same count and under the same terms, under `O=C1C=CC(=O)N1c1ccccc1OC(F)F` [compound 4] stands “± (1-5%)”.

The test system of another data set is potted young oranges (variety: Unshu). Kind of data set: Phytotoxicity of treating compound, residual activity test. Conditions: 1000 ppm, 23 mm/hr of rain.
As for `O=C1C=CC(=O)N1c1cccc(OC(F)F)c1` [compound 5], the “Phytotoxicity of Treating Compound” value is listed as “++ (26-50%)”.
As for `COc1ccccc1N1C(=O)C(Cl)=C(Cl)C1=O` [compound 7], the “Phytotoxicity of Treating Compound” value is given as “+ (6-25%)”.
Still for that read-out and setting: under `O=C1C=CC(=O)N1c1ccc(OC(F)F)cc1` [compound 6] stands “+ (6-25%)”; under `O=C1C=CC(=O)N1c1ccccc1OC(F)F` [compound 4], “+ (6-25%)”.

The next data set deals with Diaporthe citri. Kind of data set: Citrus Melanose-controlling Test. It counts as in vivo. Conditions: 500 ppm, 24 days after inoculation.
As for `O=C1C=CC(=O)N1c1cccc(OC(F)F)c1` [compound 5], the “Infested Leaves (%)” value came out at 85%.
For `COc1ccccc1N1C(=O)C(Cl)=C(Cl)C1=O` [compound 7], the “Infested Leaves (%)” value came to 98%.
As for `O=C1C=CC(=O)N1c1ccc(OC(F)F)cc1` [compound 6], the “Infested Leaves (%)” value was found to be 98%.
As for `O=C1C=CC(=O)N1c1ccccc1OC(F)F` [compound 4], the “Infested Leaves (%)” value is 1.0%.

Staying with this data set, now noted: 500 ppm, 24 days; (Σnf/4N)×100.
For `O=C1C=CC(=O)N1c1cccc(OC(F)F)c1` [compound 5], the “Infestation Rate” value was 43.
For `COc1ccccc1N1C(=O)C(Cl)=C(Cl)C1=O` [compound 7], the “Infestation Rate” value amounted to 43.
As for `O=C1C=CC(=O)N1c1ccc(OC(F)F)cc1` [compound 6], the “Infestation Rate” value was 43.
The same measure, in the same setting: under `O=C1C=CC(=O)N1c1ccccc1OC(F)F` [compound 4] stands 0.2.

Staying with this data set, now noted: 500 ppm; index 0 = 0-25% infested area; 24 days.
For the compound `O=C1C=CC(=O)N1c1cccc(OC(F)F)c1` [compound 5], the “Number of Leaves Showing Infestation Index 0” value was 33 leaves.
As for `COc1ccccc1N1C(=O)C(Cl)=C(Cl)C1=O` [compound 7], the “Number of Leaves Showing Infestation Index 0” value is 5 leaves.
Consider `O=C1C=CC(=O)N1c1ccc(OC(F)F)cc1` [compound 6], for which the “Number of Leaves Showing Infestation Index 0” value was 257 leaves.
As for `O=C1C=CC(=O)N1c1ccccc1OC(F)F` [compound 4], the “Number of Leaves Showing Infestation Index 0” value stood at 218 leaves.

Staying with this data set, now noted: 500 ppm; index 1 = 26-50% infested area; 24 days.
Consider `O=C1C=CC(=O)N1c1cccc(OC(F)F)c1` [compound 5], for which the “Number of Leaves Showing Infestation Index 1” value was found to be 63 leaves.
`COc1ccccc1N1C(=O)C(Cl)=C(Cl)C1=O` [compound 7]: the “Number of Leaves Showing Infestation Index 1” value is 85 leaves.
Turning to `O=C1C=CC(=O)N1c1ccc(OC(F)F)cc1` [compound 6], the “Number of Leaves Showing Infestation Index 1” value was 110 leaves.
Still for that read-out and setting: under `O=C1C=CC(=O)N1c1ccccc1OC(F)F` [compound 4] stands 2 leaves.

The data set is the same for the next values; noted with them: 500 ppm; index 2 = 51-75% infested area; 24 days.
In the case of `O=C1C=CC(=O)N1c1cccc(OC(F)F)c1` [compound 5], the “Number of Leaves Showing Infestation Index 2” value is 71 leaves.
The same measure, in the same setting: under `COc1ccccc1N1C(=O)C(Cl)=C(Cl)C1=O` [compound 7] stands 111 leaves; under `O=C1C=CC(=O)N1c1ccc(OC(F)F)cc1` [compound 6], 103 leaves; under `O=C1C=CC(=O)N1c1ccccc1OC(F)F` [compound 4], 0 leaves.

The data set is the same for the next values; noted with them: 500 ppm; index 3 = 76-90% infested area; 24 days.
As for `O=C1C=CC(=O)N1c1cccc(OC(F)F)c1` [compound 5], the “Number of Leaves Showing Infestation Index 3” value is given as 30 leaves.
For `COc1ccccc1N1C(=O)C(Cl)=C(Cl)C1=O` [compound 7], the “Number of Leaves Showing Infestation Index 3” value came to 32 leaves.
Consider `O=C1C=CC(=O)N1c1ccc(OC(F)F)cc1` [compound 6], for which the “Number of Leaves Showing Infestation Index 3” value came out at 44 leaves.
The same measure, in the same setting: under `O=C1C=CC(=O)N1c1ccccc1OC(F)F` [compound 4] stands 0 leaves.

Staying with this data set, now noted: 500 ppm; index 4 = 91-100% infested area; 24 days.
In the case of `O=C1C=CC(=O)N1c1cccc(OC(F)F)c1` [compound 5], the “Number of Leaves Showing Infestation Index 4” value is reported as 18 leaves.
Still for that read-out and setting: under `COc1ccccc1N1C(=O)C(Cl)=C(Cl)C1=O` [compound 7] stands 0 leaves; under `O=C1C=CC(=O)N1c1ccc(OC(F)F)cc1` [compound 6], 0 leaves; under `O=C1C=CC(=O)N1c1ccccc1OC(F)F` [compound 4], 0 leaves.

A further data set has as its system Diaporthe citri. Kind of data set: Test of Residual Activity against Citrus Melanose. Conditions: 1000 ppm, 23 mm/hr of rain, 24 days after inoculation. It counts as in vivo.
As to `O=C1C=CC(=O)N1c1cccc(OC(F)F)c1` [compound 5], the “Infested Leaves (%)” value turned out to be 87%.
`COc1ccccc1N1C(=O)C(Cl)=C(Cl)C1=O` [compound 7]: the “Infested Leaves (%)” value came out at 29%.
For `O=C1C=CC(=O)N1c1ccc(OC(F)F)cc1` [compound 6], the “Infested Leaves (%)” value is 91%.
With `O=C1C=CC(=O)N1c1ccccc1OC(F)F` [compound 4], the “Infested Leaves (%)” value is on record as 82%.

Staying with this data set, now noted: 1000 ppm, 23 mm/hr of rain, 24 days; (Σnf/4N)×100.
Regarding `O=C1C=CC(=O)N1c1cccc(OC(F)F)c1` [compound 5], the “Infestation Rate” value is recorded as 43.
Take `COc1ccccc1N1C(=O)C(Cl)=C(Cl)C1=O` [compound 7]: the “Infestation Rate” value was found to be 9.
As for `O=C1C=CC(=O)N1c1ccc(OC(F)F)cc1` [compound 6], the “Infestation Rate” value came out at 34.
Still for that read-out and setting: under `O=C1C=CC(=O)N1c1ccccc1OC(F)F` [compound 4] stands 30.

The data set is the same for the next values; noted with them: 1000 ppm, 23 mm/hr of rain; index 0 = 0-25% infested area.
Take `O=C1C=CC(=O)N1c1cccc(OC(F)F)c1` [compound 5]: the “Number of Leaves Showing Each Infestation Index: 0” value amounted to 22 leaves.
Regarding `COc1ccccc1N1C(=O)C(Cl)=C(Cl)C1=O` [compound 7], the “Number of Leaves Showing Each Infestation Index: 0” value is reported as 115 leaves.
On the same count and under the same terms, under `O=C1C=CC(=O)N1c1ccc(OC(F)F)cc1` [compound 6] stands 15 leaves; under `O=C1C=CC(=O)N1c1ccccc1OC(F)F` [compound 4], 30 leaves.

Staying with this data set, now noted: 1000 ppm, 23 mm/hr of rain; index 1 = 26-50% infested area.
`O=C1C=CC(=O)N1c1cccc(OC(F)F)c1` [compound 5]: the “Number of Leaves Showing Each Infestation Index: 1” value was 43 leaves.
With `COc1ccccc1N1C(=O)C(Cl)=C(Cl)C1=O` [compound 7], the “Number of Leaves Showing Each Infestation Index: 1” value worked out at 36 leaves.
Regarding `O=C1C=CC(=O)N1c1ccc(OC(F)F)cc1` [compound 6], the “Number of Leaves Showing Each Infestation Index: 1” value turned out to be 86 leaves.
Turning to `O=C1C=CC(=O)N1c1ccccc1OC(F)F` [compound 4], the “Number of Leaves Showing Each Infestation Index: 1” value came to 82 leaves.

The data set is the same for the next values; noted with them: 1000 ppm, 23 mm/hr of rain; index 2 = 51-75% infested area.
Take `O=C1C=CC(=O)N1c1cccc(OC(F)F)c1` [compound 5]: the “Number of Leaves Showing Each Infestation Index: 2” value is recorded as 72 leaves.
For `COc1ccccc1N1C(=O)C(Cl)=C(Cl)C1=O` [compound 7], the “Number of Leaves Showing Each Infestation Index: 2” value was 11 leaves.
As to `O=C1C=CC(=O)N1c1ccc(OC(F)F)cc1` [compound 6], the “Number of Leaves Showing Each Infestation Index: 2” value is 45 leaves.
Still for that read-out and setting: under `O=C1C=CC(=O)N1c1ccccc1OC(F)F` [compound 4] stands 43 leaves.

Staying with this data set, now noted: 1000 ppm, 23 mm/hr of rain; index 3 = 76-90% infested area.
In the case of `O=C1C=CC(=O)N1c1cccc(OC(F)F)c1` [compound 5], the “Number of Leaves Showing Each Infestation Index: 3” value worked out at 28 leaves.
Take `COc1ccccc1N1C(=O)C(Cl)=C(Cl)C1=O` [compound 7]: the “Number of Leaves Showing Each Infestation Index: 3” value amounted to 1 leaves.
As to `O=C1C=CC(=O)N1c1ccc(OC(F)F)cc1` [compound 6], the “Number of Leaves Showing Each Infestation Index: 3” value is 13 leaves.
The same measure, in the same setting: under `O=C1C=CC(=O)N1c1ccccc1OC(F)F` [compound 4] stands 10 leaves.

Staying with this data set, now noted: 1000 ppm, 23 mm/hr of rain; index 4 = 91-100% infested area.
On to `O=C1C=CC(=O)N1c1cccc(OC(F)F)c1` [compound 5], for which the “Number of Leaves Showing Each Infestation Index: 4” value was 7 leaves.
As for `COc1ccccc1N1C(=O)C(Cl)=C(Cl)C1=O` [compound 7], the “Number of Leaves Showing Each Infestation Index: 4” value is on record as 0 leaves.
Same read-out and setting: under `O=C1C=CC(=O)N1c1ccc(OC(F)F)cc1` [compound 6] stands 0 leaves; under `O=C1C=CC(=O)N1c1ccccc1OC(F)F` [compound 4], 0 leaves.

Another data set deals with Alternaria kikuchiana. Kind of data set: Pear Black Spot-controlling Test. Conditions: 500 ppm, six days after inoculation.
Protocol: Pear Black Spot (Alternaria kikuchiana)-controlling Test
The resulting solution is sprayed on unfolded leaves of potted young pears (variety: Niju-seiki) in an amount corresponding to 600 l/10a per pot. After air-drying, the unfolded leaves are inoculated with Alternaria kikuchiana, by spraying a suspension of conidia thereof containing 30 conidia per microscopic field (magnification: X200).
After inoculation, the potted young pears are allowed to stand at a temperature of 27° C. in a moist room for one day and then transferred to a greenhouse. Six days after inoculation, the leaf area infested by pear black spot, i.e., the area of pathologic spots on a leaf is examined on 5 unfolded leaves per pot and an average infestation rate is then calculated.
On to `O=C1C=CC(=O)N1c1cccc(OC(F)F)c1` [compound 5], for which the “Average Infestation Rate (%) (Based on infested area)” value (“Average Infestation Rate (%)” below) is on record as 55%.
Consider `COc1ccccc1N1C(=O)C(Cl)=C(Cl)C1=O` [compound 7], for which the “Average Infestation Rate (%)” value is on record as 32%.
`O=C1C=CC(=O)N1c1ccc(OC(F)F)cc1` [compound 6]: the “Average Infestation Rate (%)” value was found to be 36%.
With `O=C1C=CC(=O)N1c1ccccc1OC(F)F` [compound 4], the “Average Infestation Rate (%)” value was found to be 15%.

For the origin of these results see US4455315A, “N-(Difluoromethoxy substituted phenyl)-dichloromaleimides used in agricultural and horticultural fungicidal methods” (Showa Denko Kabushiki Kaisha, priority 1980, dated 1984).
